From patent publication US12139481B2, “Compositions comprising macrocycle derivatives incorporating bridged macrocycles and methods of producing and using same” (Southwestern Oklahoma State University, priority 2015, dated 2024)
Like-named read-outs stand apart in the source and are kept apart here.

What was measured:
C. krusei ATCC 6258 = test: Antifungal broth dilution assay against C. krusei (modified CLSI); type: cell-based, Candida krusei; details: for X more potent than Amphotericin B: C. krusei, ratio of molar IC50 to amphotericin B; for IC50 / C. krusei IC50: in vitro
Protocol: General Experimental Procedures. All organisms were obtained from the American Type Culture Collection (Manassas, VA) and include the fungi Candida albicans ATCC 90028, C. glabrata ATCC 90030, C. krusei ATCC 6258, and Cryptococcus neoformans ATCC 90113, and the bacteria Staphylococcus aureus ATCC 29213 and methicillin-resistant S. aureus ATCC 33591 (MRS). All organisms were tested using modified versions of the CLSI (formerly NCCLS) methods. For all organisms, optical density was used to monitor growth (NCCLS, Reference Method for Broth Dilution Antifungal Susceptibility Testing of Yeasts; Approved Standard M27-A2. National Committee on Clinical Laboratory Standards, 2002 22 (15); and NCCLS, Methods for Dilution Antimicrobial Susceptibility Tests for Bacteria that Grow Aerobically; Approved Standard, Seventh Edition M7-A7. National Committee on Clinical Laboratory Standards, 2006. 26(2)).
Samples (dissolved in DMSO) were serially-diluted in 20% DMSO/saline and transferred (10 μL) in duplicate to 96 well flat bottom microplates. Inocula were prepared by correcting the OD630 of microbe suspensions in incubation broth [RPMI 1640/0.2% dextrose/0.03% glutamine/MOPS @ pH 6.0 (Cellgro) for Candida spp., Sabouraud Dextrose for C. neoformans, and cation-adjusted Mueller-Hinton (Difco) @ pH 7.3 for Staphylococcus spp. to afford an assay volume of […] and final target inocula of: Candida spp. and C. neoformans: 1.5×10^3, and Staphylococcus spp.: 5.0×10^5 CFU/ml. Final sample test concentrations were 1/100th the DMSO stock concentration. […] All organisms were read at either 530 nm using the Biotek Powerwave XS plate reader (Bio-Tek Instruments, Vermont) prior to and after incubation: Candida spp. at 35° C. for 46-50 h, Staphylococcus spp. at 35° C. for 16-20 h, and C. neoformans at 35° C. for 70-74 h. IC50s (concentrations that afford 50% inhibition relative to controls) were calculated using XLfit 4.2 software (IDBS, Alameda, CA) using fit model 201. The MIC is defined as the lowest test concentration that allows no detectable growth. Minimum fungicidal or bactericidal concentrations were determined by removing 5 μl from each clear (or blue) well, transferring to fresh media, and incubating as previously mentioned. The MFC/MBC is defined as the lowest test concentration that kills the organism (allows no growth).
Primary Analysis. Samples were tested in duplicate at one test concentration (50 μg/mL), and percent inhibitions were calculated relative to blank and growth controls. Samples showing 50% inhibition in at least one test organism were selected for dose response (Secondary) studies.
Secondary Analysis. Extracts from the Primary Assay, and first-run pure compounds and column fractions were tested in duplicate at 3 test concentrations (5-fold dilutions). Samples dissolved to 20 mg/mL in DMSO were tested at 200, 40, and 8 μg/mL. Samples dissolved to 2 mg/mL in DMSO were tested at 20, 4, and 0.8 μg/mL.

[1] = system: L. donovani promastigotes; test: Antileishmanial Alamar Blue assay on promastigotes; type: cell-based, Leishmania donovani; details: for X more potent than Pentamidine: L. donovani, ratio of molar IC50 to Pentamidine
Outline: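 L. donovani promastigotes in RPMI 1640 with 10% FCS, from 3-day culture, were set at 5×10^5/mL and exposed to compound (50-3.1 μg/mL) for 48 hours at 26° C. Growth read by Alamar Blue fluorescence (ex 544/em 590 nm); IC50 from percent growth versus concentration.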

C. glabrata ATCC 90030 = test: Antifungal broth dilution assay against C. glabrata (modified CLSI); type: cell-based, Candida glabrata; details: for X more potent than Amphotericin B: molar IC50 ratio versus amphotericin B
Outline: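 Modified CLSI broth microdilution with OD monitoring before and after incubation at 35 °C: Candida in RPMI 1640/MOPS pH 6.0, 1.5×10^3 CFU/ml, 46-50 h; Staphylococcus in cation-adjusted Mueller-Hinton pH 7.3, 5.0×10^5 CFU/ml, 16-20 h. IC50 from curve fit; MIC is the lowest concentration with no growth; MFC/MBC from subculture.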

[2] = system: Cryptococcus neoformans ATCC 90113; test: Antimicrobial microdilution assay against Cryptococcus neoformans (modified CLSI/NCCLS, optical density); type: cell-based; details: for X more potent than Amphotericin B: C. neoformans, ratio of molar IC50 to Amphotericin B
Outline: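 Broth microdilution (modified CLSI) in RPMI pH 6.0, samples serially diluted in 20% DMSO/saline and tested in duplicate, growth followed by OD630 before and after incubation. MFC is the lowest concentration giving no growth when 5 μL from clear wells is plated on agar.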

[3] = read-out: C. krusei IC50 (mol/L)
[4] = in vitro, converted with molecular weight
[5] = in vitro, C. neoformans ATCC 90113
[6] = in vitro, C. neoformans ATCC 90113, read-out: C. neoformans IC50 (mol/L)
[7] = promastigotes, 48 hours, Alamar Blue
[8] = promastigotes, 48 hours, Alamar Blue, read-out: L. donavani IC50

Row | Compound | X more potent than Amphotericin B (C. krusei ATCC 6258) | X more potent than Pentamidine [1] | X more potent than Amphotericin B (C. glabrata ATCC 90030) | X more potent than Amphotericin B [2] | C. krusei IC50 (C. krusei ATCC 6258) [mg/L] | IC50 (C. krusei ATCC 6258; [3]) [µM] | C. glabrata IC50 (C. glabrata ATCC 90030; in vitro) [mg/L] | IC50 (C. glabrata ATCC 90030; [4]) [µM] | C. neoformans IC50 [2, 5] [mg/L] | IC50 [2, 6] [µM] | L. donovani IC50 [1, 7] [mg/L] | IC50 [1, 8] [µM] | further results
1 | c1c(CN2CCCN3CCN(CCCNCC2)CC3)cc(CN2CCCN3CCN(CCCNCC2)CC3)cc1CN1CCCN2CCN(CCCNCC1)CC2 [CDG19, tris-SB-cyclams] | 0.25 | 0.27 | 0.11 | 1.05 | – | – | – | – | – | – | – | – | IC50 (C. krusei ATCC 6258; Pichia kudriavzevii, ATCC6258, read-out: C. krusei IC50 (mol/L)): 6.04 µM; IC50 (C. krusei ATCC 6258; Pichia kudriavzevii, ATCC6258, read-out: C. krusei IC50 (μg/mL)): 4.79 µg/mL; IC50 ([1]; Leishmania donovani, 48 h, read-out: L. donavani IC50 (mol/L)): 20.1 µM; IC50 ([1]; Leishmania donovani, promastigotes, 48 hours, Alamar Blue, read-out: L. donovani IC50): 15.9 mg/L; IC50 (C. glabrata ATCC 90030; Nakaseomyces glabratus, ATCC90030, in vitro): 9.8 mg/L; IC50 (C. glabrata ATCC 90030; Nakaseomyces glabratus, ATCC90030, in vitro, converted with molecular weight): 12.3 µM; IC50 ([2]; Cryptococcus neoformans, ATCC90113, in vitro, C. neoformans ATCC 90113, read-out: C. neoformans IC50 (mol/L)): 0.227 µM; IC50 ([2]; Cryptococcus neoformans, ATCC90113, in vitro, C. neoformans ATCC 90113, read-out: C. neoformans IC50 (μg/mL)): 0.18 µg/mL
2 | [Zn3(tris-CB-Cyclams)(OAc)3][PF6]3•2.4NH4PF6 [BNS26] | 2.49 | – | 1.35 | 0.07 | 1.220 | 0.6 | 2.140 | 1.05 | 6.840 | 3.36 | – | – | –
3 | c1c(CN2CCNCCN3CCN(CC3)CC2)cc(CN2CCNCCN3CCN(CC3)CC2)cc1CN1CCNCCN2CCN(CC2)CC1 [CDG29, tris-SB-cyclens] | 0.23 | 0.32 | – | 1.69 | 4.660 | 6.57 | – | – | 0.100 | 0.141 | 11.69 | 16.5 | –
4 | Cl.Cl.Cl.Cl.Cl.Cl.Cl.Cl.c1cc(CN2CCNCCCN3CCN(CC3)CC2)cc(CN2CCNCCCN3CCN(CC3)CC2)c1 [OB46B, m-SB-homocyclens HCl salt] | 0.16 | 0.13 | – | 0.75 | 7.420 | 9.06 | – | – | 0.280 | – | 34.26 | 41.9 | IC50 ([2]; in vitro, C. neoformans ATCC 90113, HCl salt, read-out: C. neoformans IC50 (mol/L)): 0.318 µM
5 | CC(=O)[O-].F[P-](F)(F)(F)(F)F.F[P-](F)(F)(F)(F)F.F[P-](F)(F)(F)(F)F.[Mn+2].[NH4+].[NH4+].c1ccc(CN2CCN3CCCN(CC2)CCN(Cc2ccccc2)CC3)cc1 [AW036, [Mn(Bn2PBCyclen)(C2H3O2)]PF6•2NH4PF6] | 0.29 | 0.20 | – | 0.03 | 4.990 | 5.11 | – | – | 7.070 | 7.23 | 25.41 | 26 | –
6 | c1cc(CN2CCNCCCN3CCN(CC3)CC2)ccc1CN1CCNCCCN2CCN(CC2)CC1 [OB45, p-SB-Homocyclens] | 0.98 | 0.16 | – | 0.16 | 0.800 | 1.52 | – | – | ≤ 0.800 | 1.52 | 17.44 | 33.1 | –
7 | C[C@@H]1[C@H](O)[C@@H](C)/C=C/C=C/C=C/C=C/C=C/C=C/C=C/[C@H](O[C@@H]2O[C@H](C)[C@@H](O)[C@H](N)[C@@H]2O)C[C@@H]2O[C@](O)(C[C@@H](O)C[C@@H](O)[C@H](O)CC[C@@H](O)C[C@@H](O)CC(=O)O[C@H]1C)C[C@H](O)[C@H]2C(=O)O [AMB, Amphotericin B, reference compound] | 1.00 | – | 1.00 | 1.00 | 1.380 | 1.49 | 1.310 | 1.42 | 0.220 | – | – | – | IC50 ([2]; read-out: IC50 against C. neoformans): 0.238 µM
8 | O=[N+]([O-])c1ccc(CC2CNCCN(Cc3ccc(CN4CCCN5CCN(CCCNCC4)CC5)cc3)CCCN3CCN(CC3)C2)cc1 (stereo not drawn) [SJA233, Bis-SB-C-Ar-NO2] | 0.25 | 0.12 | – | 0.30 | 4.070 | 5.9 | – | – | 0.550 | 0.797 | 30.32 | 43.9 | –
9 | O=[N+]([O-])[O-].O=[N+]([O-])[O-].O=[N+]([O-])[O-].O=[N+]([O-])[O-].O=[N+]([O-])c1ccc(CC2CNCCN(Cc3ccc(CN4CCCN5CCN(CCCNCC4)CC5)cc3)CCCN3CCN(CC3)C2)cc1.[Ni+2].[Ni+2] (stereo not drawn) [SJA236, [Ni2(bis-SB-C-Ar-NO2)(NO3)4]] | 0.26 | 0.23 | 0.26 | 0.34 | 6.030 | 5.71 | 5.750 | 5.45 | 0.740 | 0.701 | 24.85 | 23.6 | –
10 | O=[N+]([O-])c1ccc(CC2CNCCN(Cc3ccc(CN4CCCN5CCN(CCCNCC4)CC5)cc3)CCCN3CCN(CC3)C2)cc1.[Cu+2].[Cu+2].[O-][Cl+3]([O-])([O-])[O-].[O-][Cl+3]([O-])([O-])[O-].[O-][Cl+3]([O-])([O-])[O-].[O-][Cl+3]([O-])([O-])[O-] (stereo not drawn) [SJA234, [Cu2(bis-SB-C-Ar-NO2)(ClO4)4]] | 0.40 | 0.21 | – | 0.15 | 4.550 | 3.75 | – | – | 1.910 | 1.57 | 30.31 | 24.9 | –
11 | CC(=O)[O-].F[P-](F)(F)(F)(F)F.[Zn+2].c1ccc(CN2CCN3CCCN(CC2)CCN(Cc2ccccc2)CC3)cc1 [AW041, [Zn(Bn2PBCyclen)(C2H3O2)]PF6] | 0.19 | 0.15 | – | 0.02 | 5.170 | – | – | – | 7.330 | – | 22.92 | – | –
12 | [Br-].[Br-].c1cc(C[N+]23CCCN(CCN4CCCN(CC2)C4)C3)ccc1C[N+]12CCCN(CCN3CCCN(CC1)C3)C2 [SLK17A, [p-(BMBCyclams)]Br2] | 1.21 | 0.23 | 0.77 | 0.02 | 0.880 | 1.24 | 1.317 | 1.85 | 8.250 | 11.6 | 16.69 | 23.4 | –
